ChEMBL document CHEMBL5550153, “Semisynthesis and biological evaluation of novel honokiol thioethers against colon cancer cells HCT116 via inhibiting the transcription and expression of YAP protein” (Bioorg Med Chem, 2024)
Active and inactive are the calls of the source. The rule behind the calls is not given here.

How the values were obtained:
[1] = test system: HCT-116; test: Antiproliferative activity against human HCT-116 cells assessed as inhibition of cell growth incubated for 48 hrs by MTT assay; format: functional, cell-based; conditions: HCT-116, 48 h
[2] = test system: MGC-803; test: Antiproliferative activity against human MGC-803 cells assessed as inhibition of cell growth incubated for 48 hrs by MTT assay; format: functional, cell-based; conditions: MGC-803, 48 h
[3] = test system: KYSE-450; test: Antiproliferative activity against human KYSE-450 cells assessed as inhibition of cell growth incubated for 48 hrs by MTT assay; format: functional, cell-based; conditions: KYSE-450, 48 h
[4] = test system: HCT-116; test: Downregulation of YAP protein expression in human HCT-116 cells at 2 to 6 micromol/L measured after 48 hrs by Western blot analysis; format: functional, cell-based; conditions: dose 2-6 µmol/L
[5] = test system: HCT-116; test: Antiproliferative activity against human HCT-116 cells assessed as inhibition of cell growth at 2 to 6 micromol/L by MTT assay; format: functional, cell-based; conditions: dose 2-6 µmol/L, time 0-48 hrs, TDE = time-dependent effect
[6] = test system: HCT-116; test: Activation of Hippo signaling pathway in human HCT-116 cells assessed as increase in YAP phosphorylation level at 2 to 6 micromol/L incubated for 48 hrs by Western blotting analysis; format: cell-based; conditions: dose 2-6 µmol/L
[7] = test system: HCT-116; test: Downregulation of YAP gene transcription in human HCT-116 cells at 6 micromol/L measured after 48 hrs by RT-qPCR analysis; format: functional, cell-based; conditions: dose 6.0 µmol/L
[8] = test system: HCT-116; test: Induction of cell cycle arrest in human HCT-116 cells assessed as increase in cells at G1 phase at 2 to 6 micromol/L measured after 48 hrs by PI staining based flow cytometry analysis relative to control; format: functional; conditions: dose 2-6 µmol/L, at 2 to 6 µM
[9] = test system: HCT-116; test: Induction of cell cycle arrest in human HCT-116 cells assessed as downregulation of CDK4 level at 2 to 6 micromol/L measured after 48 hrs by Western blot analysis; format: functional, cell-based; conditions: dose 2-6 µmol/L
[10] = test system: HCT-116; test: Downregulation of TAZ protein expression in human HCT-116 cells at 2 to 6 micromol/L measured after 48 hrs by Western blot analysis; format: functional, cell-based; conditions: dose 2-6 µmol/L
[11] = test system: HCT-116; test: Antiproliferative activity against human HCT-116 cells assessed as inhibition of cell growth measured upto 48 hrs by MTT assay; format: functional, cell-based; conditions: dose 2-6 µmol/L
[12] = test system: HCT-116; test: Induction of cell death in human HCT-116 cells at 2 to 6 micromol/L measured after 48 hrs by Annexin V-FITC/PI staining based flow cytometry analysis; format: functional; conditions: dose 2-6 µmol/L
[13] = test system: HCT-116; test: Inhibition of colony formation in human HCT-116 cells at 2 to 8 micromol/L measured daily for 7 days by crystal violet staining based analysis; format: functional, cell-based; conditions: dose 2-8 µmol/L, time 7.0 day

Row | SMILES | IC50 [1] | IC50 [2] | IC50 [3] | also measured
1 | C=CCc1ccc(O)c(-c2ccc3c(c2)C[C@@H](CSc2nnc(-c4ccc(C#N)cc4)o2)O3)c1 | > 50 µM | > 50 µM | > 50 µM | –
2 | C=CCc1ccc(O)c(-c2ccc3c(c2)C[C@@H](CSc2nnc(-c4cccc(Br)c4)o2)O3)c1 | 57.6 µM | 20.4 µM | > 50 µM | –
3 | C=CCc1ccc(O)c(-c2ccc3c(c2)C[C@@H](CSc2nnc(-c4cccnc4)o2)O3)c1 | 12.3 µM | 8.63 µM | > 50 µM | –
4 | C=CCc1ccc(O)c(-c2ccc3c(c2)C[C@@H](CSc2nnc(-c4ccccc4Cl)o2)O3)c1 | > 50 µM | > 50 µM | > 50 µM | –
5 | C=CCc1ccc(O)c(-c2ccc3c(c2)C[C@@H](CSc2nnc(-c4ccccc4OC)o2)O3)c1 | > 50 µM | > 50 µM | > 50 µM | –
6 | C=CCc1ccc(O)c(-c2ccc3c(c2)C[C@@H](CSc2nnc(-c4cccc(OC)c4)o2)O3)c1 | > 50 µM | > 50 µM | > 50 µM | –
7 | C=CCc1ccc(O)c(-c2ccc3c(c2)C[C@@H](CSc2nnc(-c4ccc([N+](=O)[O-])cc4)o2)O3)c1 | 6.1 µM | > 50 µM | > 50 µM | Activity [4]: Active; Activity [5]: Tde; Activity [6]: inactive; Activity [7]: Active; Activity [8]: >20%; Activity [9]: Active; Activity [10]: Active; Activity [11]: Dose-Dependent Effect; Activity [12]: Active; inhibition [13]: Active
8 | C=CCc1ccc(O)c(-c2ccc3c(c2)C[C@@H](CSc2nnc(-c4ccc(Br)cc4)o2)O3)c1 | 52.2 µM | 44.6 µM | > 50 µM | –
9 | C=CCc1ccc(O)c(-c2ccc3c(c2)C[C@@H](CSc2nnc(-c4cccc(C)c4)o2)O3)c1 | > 50 µM | 20.5 µM | > 50 µM | –
10 | C=CCc1ccc(O)c(-c2ccc3c(c2)C[C@@H](CSc2nnc(-c4ccccc4F)o2)O3)c1 | 20.1 µM | 16.2 µM | 38.7 µM | –
11 | C=CCc1ccc(O)c(-c2ccc3c(c2)C[C@@H](CSc2nnc(-c4ccc(OC)cc4)o2)O3)c1 | > 50 µM | 39.7 µM | > 50 µM | –
12 | C=CCc1ccc(O)c(-c2ccc3c(c2)C[C@@H](CSc2nnc(-c4ccc(C)cc4)o2)O3)c1 | 59.6 µM | 29.5 µM | > 50 µM | –
13 | C=CCc1ccc(O)c(-c2ccc3c(c2)C[C@@H](CSc2nnc(-c4ccccc4C)o2)O3)c1 | 47.7 µM | 25.7 µM | > 50 µM | –
14 | C=CCc1ccc(O)c(-c2ccc3c(c2)C[C@@H](CSc2nnc(-c4ccc(Cl)cc4Cl)o2)O3)c1 | > 50 µM | 21.5 µM | > 50 µM | –
15 | C=CCc1ccc(O)c(-c2ccc3c(c2)C[C@@H](CSc2nnc(-c4ccc(Cl)cc4)o2)O3)c1 | 37.9 µM | 27 µM | > 50 µM | –
16 | C=CCc1ccc(O)c(-c2ccc(O)c(CC=C)c2)c1 [HONOKIOL] | 17.2 µM | 11.8 µM | 32.4 µM | –
17 | C=CCc1ccc(O)c(-c2ccc3c(c2)C[C@@H](CSc2nnc(-c4ccccc4Br)o2)O3)c1 | > 50 µM | > 50 µM | > 50 µM | –
18 | C=CCc1ccc(O)c(-c2ccc3c(c2)C[C@@H](CSc2nnc(-c4ccncc4)o2)O3)c1 | > 50 µM | 40.6 µM | > 50 µM | –
19 | C=CCc1ccc(O)c(-c2ccc3c(c2)C[C@@H](CSc2nnc(-c4cccc(F)c4)o2)O3)c1 | 29.4 µM | 23.8 µM | > 50 µM | –
20 | O=c1[nH]cc(F)c(=O)[nH]1 [FLUOROURACIL] | 9.63 µM | 3.88 µM | 32.6 µM | –
21 | C=CCc1ccc(O)c(-c2ccc3c(c2)C[C@@H](CSc2nnc(-c4ccc(F)cc4Cl)o2)O3)c1 | > 50 µM | 20.4 µM | > 50 µM | –
22 | C=CCc1ccc(O)c(-c2ccc3c(c2)C[C@@H](CSc2nnc(-c4ccc(F)cc4)o2)O3)c1 | 27.4 µM | 25.1 µM | > 50 µM | –
23 | C=CCc1ccc(O)c(-c2ccc3c(c2)C[C@@H](CSc2nnc(-c4ccccc4)o2)O3)c1 | 46.7 µM | 27.5 µM | > 50 µM | –
24 | C=CCc1ccc(O)c(-c2ccc3c(c2)C[C@@H](CSc2nnc(-c4cccc(Cl)c4)o2)O3)c1 | 43.4 µM | 24.6 µM | > 50 µM | –
